Measurements taken from patent US20070117770A1, “Human ribosomal DNA (rDNA) and ribosomal RNA (rRNA) nucleic acids and uses thereof” (Cylene Pharmaceuticals, Inc., priority 2005, published 2007).

What was measured:
Test in all cases: Protein kinase inhibition assay
Assay type in all cases: biochemical
MLK1(h) = MLK1(h) (Homo sapiens, UniProt P80192); details: read-out: percent residual activity of MLK1(h)
Experimental: (§1) Certain compounds were tested for activity in protein kinase inhibition assays. All substrates were dissolved and diluted to working stocks in de-ionized water, apart from histone H1 (10× working stock in 20 mM MOPS pH 7.0), PDKtide (10× working stock in 50 mM Tris pH 7.0) ATF2 (which is typically stored at a 20× working stock in 50 mM Tris pH 7.5, 150 mM NaCl, 0.1 mM EGTA, 0.03% Brij-35, 50% glycerol, 1 mM benzamidine, 0.2 mM PMSF and 0.1% R-mercaptoethanol), KKLNRTLSFAEPG (SEQ ID NO:203) and RRRLSFAEPG (SEQ ID NO:204) (50 mM HEPES pH 7.4) and GGEEEEYFELVKKKK (SEQ ID NO:205) (20 mM MOPS pH 7.0). All kinases were pre-diluted to a 10× working concentration prior to addition into the assay. The composition of the dilution buffer for each kinase is detailed below.

PTK5(h) = PTK5(h) (Homo sapiens, UniProt P42685); details: read-out: percent residual activity of PTK5(h)
Experimental: as §1

CaMKI(h) = CaMKI(h) (Homo sapiens, UniProt Q14012); details: read-out: percent residual activity of CaMKI(h)
Experimental: as §1

LKB1(h) = LKB1(h) (Homo sapiens, UniProt Q15831); details: read-out: percent residual activity of LKB1(h)
Experimental: as §1

Flt4(h) = Flt4(h) (Homo sapiens, UniProt P35916); details: read-out: percent residual activity of Flt4(h)
Experimental: as §1

WNK2(h) = WNK2(h) (Homo sapiens, UniProt Q9Y3S1); details: read-out: percent residual activity of WNK2(h)
Experimental: as §1

MELK(h) = MELK(h) (Homo sapiens, UniProt Q14680); details: read-out: percent residual activity of MELK(h)
Experimental: as §1

FAK(h) = FAK(h) (Homo sapiens, UniProt Q05397); details: read-out: percent residual activity of FAK(h)
Experimental: as §1

Rsk4(h) = Rsk4(h) (Homo sapiens, UniProt Q9UK32); details: read-out: percent residual activity of Rsk4(h)
Experimental: as §1

DYRK2(h) = DYRK2(h) (Homo sapiens, UniProt Q92630); details: read-out: percent residual activity of DYRK2(h)
Experimental: as §1

GRK5(h) = GRK5(h) (Homo sapiens, UniProt P34947); details: read-out: percent residual activity of GRK5(h)
Experimental: as §1

PASK(h) = PASK(h) (Homo sapiens, UniProt Q96RG2); details: for remaining activity at 2.5 µM: read-out: percent residual activity of PASK(h)
Experimental: as §1

CDK9/cyclin T1(h) = CDK9/cyclin T1(h) (Homo sapiens, UniProt P50750); details: read-out: percent residual activity of CDK9/cyclin T1(h)
Experimental: as §1

MRCKα(h) = MRCKα(h) (Homo sapiens, UniProt Q5VT25); details: read-out: percent residual activity of MRCKα(h)
Experimental: as §1

CaMKIIγ(h) = CaMKIIγ(h) (Homo sapiens, UniProt Q13555); details: read-out: percent residual activity of CaMKIIγ(h)
Experimental: as §1

SRPK2(h) = SRPK2(h) (Homo sapiens, UniProt P78362); details: read-out: percent residual activity of SRPK2(h)
Experimental: as §1

NEK3(h) = NEK3(h) (Homo sapiens, UniProt P51956); details: read-out: percent residual activity of NEK3(h)
Experimental: as §1

PAK3(h) = PAK3(h) (Homo sapiens, UniProt O75914); details: read-out: percent residual activity of PAK3(h)
Experimental: as §1

Pim-2(h) = Pim-2(h) (Homo sapiens, UniProt Q9P1W9); details: read-out: percent residual activity of Pim-2(h)
Experimental: as §1

BrSK2(h) = BrSK2(h) (Homo sapiens, UniProt Q8IWQ3); details: read-out: percent residual activity of BrSK2(h)
Experimental: as §1

MARK1(h) = MARK1(h) (Homo sapiens, UniProt Q9P0L2); details: read-out: percent residual activity of MARK1(h)
Experimental: as §1

PKG1α(h) = PKG1α(h) (Homo sapiens, UniProt Q13976); details: read-out: percent residual activity of PKG1α(h)
Experimental: as §1

PAK5(h) = PAK5(h) (Homo sapiens, UniProt Q9P286); details: read-out: percent residual activity of PAK5(h)
Experimental: as §1

EphA1(h) = EphA1(h) (Homo sapiens, UniProt P21709); details: read-out: percent residual activity of EphA1(h)
Experimental: as §1

EphA8(h) = EphA8(h) (Homo sapiens, UniProt P29322); details: read-out: percent residual activity of EphA8(h)
Experimental: as §1

NEK11(h) = NEK11(h) (Homo sapiens, UniProt Q8NG66); details: read-out: percent residual activity of NEK11(h)
Experimental: as §1

DMPK(h) = DMPK(h) (Homo sapiens, UniProt Q09013); details: read-out: percent residual activity of DMPK(h)
Experimental: as §1

DAPK2(h) = DAPK2(h) (Homo sapiens, UniProt Q9UIK4); details: read-out: percent residual activity of DAPK2(h)
Experimental: as §1

PASK(h), sequence (Q96RG2 whole entry): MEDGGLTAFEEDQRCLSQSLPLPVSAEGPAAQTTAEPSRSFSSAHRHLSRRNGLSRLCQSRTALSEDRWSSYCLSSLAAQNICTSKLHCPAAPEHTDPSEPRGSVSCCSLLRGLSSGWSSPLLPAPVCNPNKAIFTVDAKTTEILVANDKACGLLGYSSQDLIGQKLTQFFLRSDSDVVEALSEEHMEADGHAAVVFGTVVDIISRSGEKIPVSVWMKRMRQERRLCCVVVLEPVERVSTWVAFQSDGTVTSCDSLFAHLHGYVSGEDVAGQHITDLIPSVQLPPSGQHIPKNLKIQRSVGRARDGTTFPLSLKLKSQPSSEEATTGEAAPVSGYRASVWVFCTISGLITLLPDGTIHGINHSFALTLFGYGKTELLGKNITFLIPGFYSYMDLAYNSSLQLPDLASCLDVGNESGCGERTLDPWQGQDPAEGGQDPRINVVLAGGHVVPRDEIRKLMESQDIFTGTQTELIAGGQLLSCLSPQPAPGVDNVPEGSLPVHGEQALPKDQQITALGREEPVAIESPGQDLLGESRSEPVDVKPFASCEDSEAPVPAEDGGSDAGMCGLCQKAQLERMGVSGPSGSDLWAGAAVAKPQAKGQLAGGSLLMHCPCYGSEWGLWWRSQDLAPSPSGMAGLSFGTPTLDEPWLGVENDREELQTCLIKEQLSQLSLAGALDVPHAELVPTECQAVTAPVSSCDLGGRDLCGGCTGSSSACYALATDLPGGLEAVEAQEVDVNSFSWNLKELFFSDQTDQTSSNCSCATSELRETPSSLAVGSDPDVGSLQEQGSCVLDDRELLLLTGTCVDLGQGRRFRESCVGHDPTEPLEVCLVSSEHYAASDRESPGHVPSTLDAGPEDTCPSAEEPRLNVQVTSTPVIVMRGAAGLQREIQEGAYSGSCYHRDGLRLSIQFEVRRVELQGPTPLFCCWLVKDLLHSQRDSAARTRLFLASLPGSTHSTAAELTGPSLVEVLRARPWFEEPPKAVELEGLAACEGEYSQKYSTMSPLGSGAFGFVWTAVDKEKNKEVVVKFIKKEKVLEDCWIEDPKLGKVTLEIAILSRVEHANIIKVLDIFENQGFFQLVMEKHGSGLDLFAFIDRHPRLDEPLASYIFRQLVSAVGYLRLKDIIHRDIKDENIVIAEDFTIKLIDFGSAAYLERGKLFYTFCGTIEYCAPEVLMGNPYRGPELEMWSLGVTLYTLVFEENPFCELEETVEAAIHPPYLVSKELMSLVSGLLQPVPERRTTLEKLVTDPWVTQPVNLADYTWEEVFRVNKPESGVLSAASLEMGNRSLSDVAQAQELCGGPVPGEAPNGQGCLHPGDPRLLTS
EphA8(h), sequence (P29322 28-1005): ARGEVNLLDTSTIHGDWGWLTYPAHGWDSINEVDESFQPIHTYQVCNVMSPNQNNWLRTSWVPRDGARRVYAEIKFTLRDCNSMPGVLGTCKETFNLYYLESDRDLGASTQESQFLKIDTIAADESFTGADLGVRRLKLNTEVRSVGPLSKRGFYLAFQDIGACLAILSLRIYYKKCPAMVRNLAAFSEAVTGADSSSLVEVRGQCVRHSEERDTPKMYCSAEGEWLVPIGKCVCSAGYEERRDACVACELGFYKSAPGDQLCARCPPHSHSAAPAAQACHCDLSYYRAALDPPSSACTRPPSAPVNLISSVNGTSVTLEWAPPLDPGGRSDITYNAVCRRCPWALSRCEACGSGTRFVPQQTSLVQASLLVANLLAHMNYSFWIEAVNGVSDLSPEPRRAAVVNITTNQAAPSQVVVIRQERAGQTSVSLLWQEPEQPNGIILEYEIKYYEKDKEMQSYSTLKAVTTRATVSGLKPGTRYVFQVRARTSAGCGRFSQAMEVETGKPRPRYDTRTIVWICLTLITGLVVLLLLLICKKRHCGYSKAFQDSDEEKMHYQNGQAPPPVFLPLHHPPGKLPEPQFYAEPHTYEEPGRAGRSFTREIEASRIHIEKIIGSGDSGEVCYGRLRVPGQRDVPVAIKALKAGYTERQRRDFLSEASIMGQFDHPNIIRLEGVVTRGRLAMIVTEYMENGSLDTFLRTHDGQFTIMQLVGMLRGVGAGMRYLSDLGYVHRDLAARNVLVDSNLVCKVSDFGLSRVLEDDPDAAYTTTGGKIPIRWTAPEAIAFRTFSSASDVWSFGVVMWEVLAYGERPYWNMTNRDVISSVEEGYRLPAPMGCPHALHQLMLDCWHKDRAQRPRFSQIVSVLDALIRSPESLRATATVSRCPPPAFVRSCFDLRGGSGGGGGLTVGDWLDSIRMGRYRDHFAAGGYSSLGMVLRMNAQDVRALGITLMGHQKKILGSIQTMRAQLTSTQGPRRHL
MRCKα(h), sequence (Q5VT25 whole entry): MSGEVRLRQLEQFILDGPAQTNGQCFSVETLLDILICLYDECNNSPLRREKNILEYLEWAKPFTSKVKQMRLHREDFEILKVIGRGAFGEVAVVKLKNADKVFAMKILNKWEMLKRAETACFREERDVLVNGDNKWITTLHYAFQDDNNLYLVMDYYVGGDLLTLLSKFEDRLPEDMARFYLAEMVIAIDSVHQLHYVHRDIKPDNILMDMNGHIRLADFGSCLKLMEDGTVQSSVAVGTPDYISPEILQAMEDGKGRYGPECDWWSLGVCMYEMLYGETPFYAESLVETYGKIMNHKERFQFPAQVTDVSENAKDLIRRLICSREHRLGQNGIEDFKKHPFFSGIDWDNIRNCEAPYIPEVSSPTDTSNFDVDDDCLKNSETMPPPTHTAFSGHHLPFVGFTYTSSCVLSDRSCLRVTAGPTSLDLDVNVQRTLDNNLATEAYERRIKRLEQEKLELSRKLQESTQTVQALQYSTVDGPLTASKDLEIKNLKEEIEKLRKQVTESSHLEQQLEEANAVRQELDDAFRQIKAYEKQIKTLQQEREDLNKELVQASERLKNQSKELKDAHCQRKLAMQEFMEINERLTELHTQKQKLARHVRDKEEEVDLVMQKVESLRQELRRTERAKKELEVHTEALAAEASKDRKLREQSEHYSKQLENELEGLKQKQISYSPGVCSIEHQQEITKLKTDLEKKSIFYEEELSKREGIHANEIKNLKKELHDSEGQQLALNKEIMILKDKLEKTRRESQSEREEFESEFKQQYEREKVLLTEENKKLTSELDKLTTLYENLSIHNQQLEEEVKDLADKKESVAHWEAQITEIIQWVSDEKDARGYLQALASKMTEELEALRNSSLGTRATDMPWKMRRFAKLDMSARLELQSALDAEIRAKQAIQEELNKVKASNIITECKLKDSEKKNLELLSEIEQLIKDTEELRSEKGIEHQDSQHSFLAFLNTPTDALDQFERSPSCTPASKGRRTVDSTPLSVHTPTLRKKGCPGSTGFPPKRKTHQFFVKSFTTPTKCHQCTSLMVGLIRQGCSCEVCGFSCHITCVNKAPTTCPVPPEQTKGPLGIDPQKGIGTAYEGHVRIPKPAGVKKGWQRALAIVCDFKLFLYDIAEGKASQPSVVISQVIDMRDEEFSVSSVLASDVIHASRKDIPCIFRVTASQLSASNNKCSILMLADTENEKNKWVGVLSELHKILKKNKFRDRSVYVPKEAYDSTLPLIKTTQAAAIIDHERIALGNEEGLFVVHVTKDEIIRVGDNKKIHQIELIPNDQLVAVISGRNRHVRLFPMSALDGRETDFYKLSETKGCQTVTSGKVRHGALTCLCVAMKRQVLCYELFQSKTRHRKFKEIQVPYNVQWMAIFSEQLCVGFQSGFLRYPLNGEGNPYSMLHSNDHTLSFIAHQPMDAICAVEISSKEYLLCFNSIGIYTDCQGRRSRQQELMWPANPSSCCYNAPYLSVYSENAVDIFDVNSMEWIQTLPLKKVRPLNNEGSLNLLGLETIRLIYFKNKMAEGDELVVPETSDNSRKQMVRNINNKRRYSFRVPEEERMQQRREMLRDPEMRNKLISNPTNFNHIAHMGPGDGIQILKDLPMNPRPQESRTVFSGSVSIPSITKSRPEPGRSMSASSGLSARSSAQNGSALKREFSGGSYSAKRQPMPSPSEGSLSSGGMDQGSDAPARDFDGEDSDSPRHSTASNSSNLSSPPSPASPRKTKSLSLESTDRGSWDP
GRK5(h), sequence (P34947 whole entry): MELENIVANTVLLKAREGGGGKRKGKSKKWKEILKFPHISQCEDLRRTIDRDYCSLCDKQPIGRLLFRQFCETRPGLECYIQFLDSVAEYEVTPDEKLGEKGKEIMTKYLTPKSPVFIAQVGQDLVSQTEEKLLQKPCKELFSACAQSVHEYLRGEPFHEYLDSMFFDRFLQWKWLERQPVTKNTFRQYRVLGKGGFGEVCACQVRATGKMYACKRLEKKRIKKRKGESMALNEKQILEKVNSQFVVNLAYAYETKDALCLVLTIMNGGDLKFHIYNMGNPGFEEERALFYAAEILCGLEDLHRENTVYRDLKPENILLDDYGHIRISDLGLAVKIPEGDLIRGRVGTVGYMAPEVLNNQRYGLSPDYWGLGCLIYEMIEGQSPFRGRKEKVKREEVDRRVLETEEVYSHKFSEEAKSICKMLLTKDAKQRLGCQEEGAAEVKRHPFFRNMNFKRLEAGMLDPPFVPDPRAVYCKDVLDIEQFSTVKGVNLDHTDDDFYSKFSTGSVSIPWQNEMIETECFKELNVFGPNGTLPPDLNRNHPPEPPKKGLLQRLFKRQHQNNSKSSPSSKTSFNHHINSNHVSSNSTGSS
NEK3(h), sequence (P51956 whole entry): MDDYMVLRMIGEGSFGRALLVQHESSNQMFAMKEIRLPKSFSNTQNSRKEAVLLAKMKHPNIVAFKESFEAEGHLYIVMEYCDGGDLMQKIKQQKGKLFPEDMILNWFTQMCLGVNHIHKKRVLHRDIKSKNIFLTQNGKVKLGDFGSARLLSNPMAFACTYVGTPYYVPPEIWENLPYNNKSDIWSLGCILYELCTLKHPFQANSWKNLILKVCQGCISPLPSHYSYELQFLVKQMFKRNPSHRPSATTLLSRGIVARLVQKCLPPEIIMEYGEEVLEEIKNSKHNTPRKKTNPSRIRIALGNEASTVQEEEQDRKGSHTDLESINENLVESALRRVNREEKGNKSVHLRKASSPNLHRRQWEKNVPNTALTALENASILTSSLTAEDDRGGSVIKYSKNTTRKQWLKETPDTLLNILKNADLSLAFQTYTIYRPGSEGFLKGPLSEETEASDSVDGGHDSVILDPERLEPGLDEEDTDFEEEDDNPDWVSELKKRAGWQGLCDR

Structure (SMILES)	remaining activity at 2.5 µM (MLK1(h))	remaining activity at 2.5 µM (PTK5(h))	remaining activity at 2.5 µM (CaMKI(h))	remaining activity at 2.5 µM (LKB1(h))	remaining activity at 2.5 µM (Flt4(h))	remaining activity at 2.5 µM (WNK2(h))	remaining activity at 2.5 µM (MELK(h))	remaining activity at 2.5 µM (FAK(h))	remaining activity at 2.5 µM (Rsk4(h))	remaining activity at 2.5 µM (DYRK2(h))	remaining activity at 2.5 µM (GRK5(h))	remaining activity at 2.5 µM (PASK(h))	remaining activity at 2.5 µM (CDK9/cyclin T1(h))	remaining activity at 2.5 µM (MRCKα(h))	remaining activity at 2.5 µM (CaMKIIγ(h))	remaining activity at 2.5 µM (SRPK2(h))	remaining activity at 2.5 µM (NEK3(h))	remaining activity at 2.5 µM (PAK3(h))	remaining activity at 2.5 µM (Pim-2(h))	remaining activity at 2.5 µM (BrSK2(h))	further results
CN1CCCC1CCNC(=O)c1cn2c3c(c(N4CCC(c5cnccn5)C4)c(F)cc3c1=O)Oc1cc3ccccc3cc1-2 (stereo not drawn) [Compound A-1]	85%	116%	95%	98%	70%	97%	40%	94%	69%	70%	95%	10%	116%	85%	110%	88%	94%	88%	77%	96%	inhibition at 2.5 µM (PASK(h)): > 80%; remaining activity at 2.5 µM (MARK1(h)): 83%; remaining activity at 2.5 µM (PKG1α(h)): 57%; remaining activity at 2.5 µM (PAK5(h)): 103%; remaining activity at 2.5 µM (EphA1(h)): 69%; remaining activity at 2.5 µM (EphA8(h)): 100%; remaining activity at 2.5 µM (NEK11(h)): 70%; remaining activity at 2.5 µM (DMPK(h)): 92%; remaining activity at 2.5 µM (DAPK2(h)): 109%
CC(=O)N1CCN(c2ccc3c(=O)c(C(=O)NCCN4CCCC4)c4n(C)c5ccccc5n4c3n2)CC1 [Compound B-1]	86%	107%	106%	101%	103%	108%	94%	102%	94%	75%	99%	100%	100%	98%	104%	88%	118%	91%	110%	96%	remaining activity at 2.5 µM (MARK1(h)): 95%; remaining activity at 2.5 µM (PKG1α(h)): 101%; remaining activity at 2.5 µM (PAK5(h)): 101%; remaining activity at 2.5 µM (EphA1(h)): 96%; remaining activity at 2.5 µM (EphA8(h)): 100%; remaining activity at 2.5 µM (NEK11(h)): 107%; remaining activity at 2.5 µM (DMPK(h)): 105%; remaining activity at 2.5 µM (DAPK2(h)): 102%
